Source: patent US20240415814A1, “PHARMACEUTICAL COMPOSITION COMPRISING 1-(3-CYANO-1-ISOPROPYL-INDOL-5-YL)PYRAZOLE-4-CARBOXYLIC ACID” (LG CHEM, LTD., priority 2021, published 2024)

Key:
serum uric acid = experiment: Pharmacodynamics (serum uric acid) according to renal function of patients; type: in vivo, human; details: for AUEC0-24 of serum uric acid (baseline corrected), geometric LS mean / Cmean, 24 of serum uric acid (baseline corrected), geometric LS mean / Emax of serum uric acid (baseline corrected), geometric LS mean: 200 mg once daily, Day 7
Protocol: PK and PD of the compound of Example 1 were assessed under patient groups with various degrees of renal function. […] A total of 37 patients were classified into 4 groups as follows based on renal function according to eGFR which was calculated by MDRD formula: • Normal: eGFR≥90 mL/min/1.73 m^2, n=13 • Mild (mild renal function impairment): eGFR 60-less than 90 mL/min/1.73 m^2, n=8 • Moderate (moderate renal function impairment): eGFR 30-less than 60 mL/min/1.73 m^2, n=8 • Severe (severe renal function impairment): eGFR<30 mL/min/1.73 m^2 and not on hemodialysis, n=8
Blood and urine samples were collected before dosing and up to 24 or 48 hours after the final dosing for PK/PD assessment.
An analysis of variance (ANOVA) model was fitted to the log-transformed baseline corrected PD parameters, with renal function impairment group fitted as a fixed effect. Point estimates and 90% CIs for differences between the least square means on the log scale were exponentiated to express the results as ratios of geometric means and CIs on the original scale.

[1] = Phase 2 clinical trial: analysis of TEAEs; type: in vivo, human
Protocol: Selected patients gave written informed consent according to institutional and study procedures. After screening and wash-out processes (days 26 to 33 pre-dose), a total of 156 patients were finally enrolled, and each patient was randomly assigned to 5 groups of 50 mg, 100 mg and 200 mg dosing groups of the compound of Example 1, a placebo group, and a febuxostat group. Patients in each group self-administered 1 tablet of a combination drug (colchicine, 0.6 mg/day) for the prevention of gout flare along with the assigned investigational drug (50 mg, 100 mg and 200 mg doses of the compound of Example 1, placebo, and 40 mg of febuxostat group) orally, once every morning, at about the same time each day, with water, regardless of food.
When ULT is performed using a xanthine oxidase inhibitor compound, since there is a high possibility of gout flare as the tophi dissolves at the end of the bone during the initial treatment period, it was designed to be used in combination with colchicine for the purpose of inhibiting it. The drug was administered for 84 days by setting the first dosing day of the drug as day 1, and basic tests, serum uric acid concentration and the like were measured at clinic visits on 14 days (week 2), 28 days (week 4), 56 days (week 8), and 84 days (week 12) during the dosing period to determine whether TEAEs occurred. After the end of drug administration, a safety follow-up was performed for an additional 2 weeks (98 days, week 14).
Among all patient groups participating in the clinical trial, although the administration was stopped for 3 patients due to headache, gout flare in the left ankle, and liver dysfunction in the 100 mg dosing group of Example 1 and for 1 patient due to an increase in hepatic enzyme in the 200 mg dosing group, no significant treatment emergency adverse event (TEAE) was found in the remaining patient groups.

[2] = normal renal function (control)

For `CC(C)n1cc(C#N)c2cc(-n3cc(C(=O)O)cn3)ccc21` [Example 1, 1-(3-cyano-1-isopropyl-indol-5-yl)pyrazol-4-carboxylic acid], the “AUEC0-24, ratio of geometric LS means” value (serum uric acid; Mild/Normal) was 0.980, the “Cmean, 24, ratio of geometric LS means” value (serum uric acid; Mild/Normal) was 0.988 and the “Emax, ratio of geometric LS means” value (serum uric acid; Mild/Normal) was 0.979. The “AUEC0-24, ratio of geometric LS means” value (serum uric acid; Moderate/Normal) was 1.02, the “Cmean, 24, ratio of geometric LS means” value (serum uric acid; Moderate/Normal) was 1.03 and the “Emax, ratio of geometric LS means” value (serum uric acid; Moderate/Normal) was 1.02. The “AUEC0-24, ratio of geometric LS means” value (serum uric acid; Severe/Normal) was 1.05, the “Cmean, 24, ratio of geometric LS means” value (serum uric acid; Severe/Normal) was 1.03 and the “Emax, ratio of geometric LS means” value (serum uric acid; Severe/Normal) was 0.911. The “GLSMRs for Cmean,24, Emax and AUEC0-24 of sUA” value (serum uric acid; across all renal function impairment groups versus normal) was “approximately 1”, the AUEC0-24 of serum uric acid (baseline corrected), geometric LS mean (serum uric acid; mild impairment) was 111 mg·h/dL and the “Cmean, 24 of serum uric acid (baseline corrected), geometric LS mean” value (shortened to “Cmean, 24 of serum uric acid”) (serum uric acid; mild impairment) was 4.53 mg/dL. For the same compound, the “Emax of serum uric acid (baseline corrected), geometric LS mean” value (“Emax of serum uric acid” for short) (serum uric acid; mild impairment) was 4.43 mg/dL, the AUEC0-24 of serum uric acid (baseline corrected), geometric LS mean (serum uric acid; moderate impairment) was 115 mg·h/dL and the “Cmean, 24 of serum uric acid” value (serum uric acid; moderate impairment) was 4.74 mg/dL. For the same compound, the “Emax of serum uric acid” value (serum uric acid; moderate impairment) was 4.63 mg/dL, the AUEC0-24 of serum uric acid (baseline corrected), geometric LS mean (serum uric acid; [2]) was 113 mg·h/dL and the “Cmean, 24 of serum uric acid” value (serum uric acid; [2]) was 4.59 mg/dL. For the same compound, the “Emax of serum uric acid” value (serum uric acid; [2]) was 4.52 mg/dL, the AUEC0-24 of serum uric acid (baseline corrected), geometric LS mean (serum uric acid; severe impairment) was 119 mg·h/dL and the “Cmean, 24 of serum uric acid” value (serum uric acid; severe impairment) was 4.72 mg/dL. The “Emax of serum uric acid” value (serum uric acid; severe impairment) was 4.12 mg/dL, the “incidence of TEAEs” value ([1]; 50 mg, 100 mg and 200 mg groups versus placebo and febuxostat groups) was “showed no difference from the placebo group and the febuxostat group in the overall TEAE” and the “patients for whom administration was stopped (headache, gout flare in the left ankle, liver dysfunction)” value ([1]; 100 mg dosing group) was 3 patients. For the same compound, the “patients for whom administration was stopped (increase in hepatic enzyme)” value ([1]; 200 mg dosing group) was 1 patient.
